Experimental data from patent US20260250318A1, “COMPOSITIONS AND METHODS FOR CROSSING THE BLOOD BRAIN BARRIER” (VOYAGER THERAPEUTICS, INC., priority 2022, published 2026).

System: brains, heart, liver, muscle, and DRG of the NHPs
Assay: Maturation of TTM-001 and TTM-002 capsids, NGS enrichment in NHP tissues
Assay type: in vivo
Excerpt: This Example describes maturation of the AAV9 capsid variants, TTM-001 (SEQ ID NO: 981 (amino acid) and 983 (DNA), comprising SEQ ID NO: 941 (encoded by SEQ ID NO: 942)) and TTM-002 (SEQ ID NO: 982 (amino acid) and 984 (DNA), comprising SEQ ID NO: […] (encoded by SEQ ID NO: 944)) in NHPs to further enhance their transduction and biodistribution in the central nervous system as well as other tissues, and evolve the AAV capsid variants to provide further cross-species compatibility. Two approaches were used to mature the TTM-001 and TTM-002 capsid sequences in order to randomize and mutate within and around the peptide insert comprised within loop IV of the capsid variant. […] In the first maturation approach, sets of three contiguous amino acids were randomized across the mutagenesis region in the TTM-001 and TTM-002 sequences, which spanned from position 450 to position 466, numbered according to SEQ ID NO: 981 and 982. In the second maturation approach, mutagenic primers were used to introduce point mutations at a low frequency, scattered across the mutagenesis region in the TTM-001 and TTM-002 sequences ranging from position 449 to position 466, numbered according to SEQ ID NO: 981 and 982. AAV capsid variants arising from each maturation approach for TTM-001 and TTM-002 were pooled together, for subsequent testing and characterization in NHPs.
The library of pooled matured AAV capsid variants generated using the first maturation approach and the second maturation approach for the TTM-001 and TTM-002 AAV capsid variants were injected into two NHPs. […] Following RNA recovery and RT-PCR amplification, a systematic NGS enrichment analysis was performed to calculate the fold enrichment ratio relative to an AAV9 control, and the peptides comprised within the variants were identified.
Following the RNA recovery and NGS analysis from the second maturation approach, approximately 680,000 capsid variants were identified. The 680,000 matured capsid variants were then filtered based on samples with a raw virus count greater than 10 and a coefficient of variance (CV) of less than 1, which was calculated for each peptide across the brain samples taken from the two NHPs. […] Using this filtering criteria, this led to approximately 64,000 matured capsid variants.

[1] = NHP DRG, NGS, relative to AAV9 control
[2] = NHP brain, NGS, relative to AAV9 control
[3] = NHP heart, NGS, relative to AAV9 control
[4] = NHP liver DNA, NGS, relative to AAV9 control
[5] = NHP liver RNA, NGS, TTM-001 and TTM-002 matured AAV capsid variants, relative to AAV9 control
[6] = NHP muscle, NGS, relative to AAV9 control

Sequence | Fold Enrichment relative to AAV9, DRG (NHP) [1] | Fold Enrichment relative to AAV9, Brain (NHP) [2] | Fold Enrichment relative to AAV9, Heart (NHP) [3] | Fold Enrichment relative to AAV9, Liver DNA (NHP) [4] | Fold Enrichment relative to AAV9, Liver RNA (NHP) [5] | Fold Enrichment relative to AAV9, Muscle (NHP) [6] | Fold Enrichment relative to AAV9, DRG (NHP) (NGS fold-enrichment, DRG, NHP, relative to AAV9) | Fold Enrichment relative to AAV9, Brain (NHP) (NGS fold-enrichment, brain, NHP, relative to AAV9) | Fold Enrichment relative to AAV9, Heart (NHP) (NGS fold-enrichment, heart, NHP, relative to AAV9) | Fold Enrichment relative to AAV9, Liver DNA (NHP) (NGS fold-enrichment, liver DNA, NHP, relative to AAV9) | Fold Enrichment relative to AAV9, Liver RNA (NHP) (NGS fold-enrichment, liver RNA, NHP, relative to AAV9) | Fold Enrichment relative to AAV9, Muscle (NHP) (NGS fold-enrichment, muscle, NHP, relative to AAV9)
KFFHGSGSPHSKAQNQQT | 0.000 fold | 0.000 fold | 0.000 fold | 0.897 fold | 15.412 fold | 0.000 fold |  |  |  |  |  | 
KKHLGSGSPHSKAQNQQT | 0.000 fold | 0.000 fold | 0.000 fold | 0.658 fold | 18.521 fold | 0.000 fold |  |  |  |  |  | 
KPARGSGSPHSKAQNQQT | 0.000 fold | 0.000 fold | 0.000 fold | 1.391 fold | 16.793 fold | 0.000 fold |  |  |  |  |  | 
KPFLGSGSPHSKAQNQQT |  |  |  |  |  |  | 0.000 fold | 0.000 fold | 0.000 fold | 1.328 fold | 10.318 fold | 0.000 fold
KPRFGSGSPHSKAQNQQT | 0.000 fold | 0.000 fold | 0.000 fold | 0.657 fold | 27.203 fold | 0.000 fold |  |  |  |  |  | 
KPRWGSGSPHSKAQNQQT | 0.000 fold | 0.000 fold | 375.537 fold | 0.386 fold | 51.637 fold | 0.000 fold |  |  |  |  |  | 
KRFSGSGSPHSKAQNQQT | 0.000 fold | 0.000 fold | 0.000 fold | 1.358 fold | 11.024 fold | 0.000 fold |  |  |  |  |  | 
KRSYGSGSPHSKAQNQQT | 0.000 fold | 0.000 fold | 0.000 fold | 2.841 fold | 22.474 fold | 0.000 fold |  |  |  |  |  | 
KRYNGSGSPHSKAQNQQT | 0.000 fold | 0.000 fold | 0.000 fold | 0.806 fold | 15.160 fold | 0.000 fold |  |  |  |  |  | 
KSRRGSGSPHSKAQNQQT | 0.000 fold | 0.000 fold | 0.000 fold | 1.446 fold | 16.131 fold | 0.000 fold |  |  |  |  |  | 
KTICGRGSPHSKAQNQQT | 0.000 fold | 0.000 fold | 0.000 fold | 2.171 fold | 18.923 fold | 0.000 fold |  |  |  |  |  | 
KTIFDCGSPHSKAQNQQT | 0.000 fold | 0.000 fold | 0.000 fold | 1.602 fold | 27.844 fold | 0.000 fold |  |  |  |  |  | 
